Laboratory results taken from US4728641A, “Ganglioside derivatives” (Burroughs Wellcome Co., priority 1983, dated 1988).

What was measured:
[1] = system: Plasmodium berghei; experiment: In vivo activity against Plasmodium berghei protozoa in mice; parameters: species or system Swiss male albino mice (Charles River CD1); conditions: GM1 P (Example 1) 5 mg/kg s.c. 24 and 2 hours before infection, pyrimethamine 1 mg/kg s.c. days 0, 1 and 2, or both
Method: 40 Swiss male albino mice (Charles River CD1) weighing 22±1 g were randomly divided into groups of 10 and injected intraperitoneally with 0.1 ml/10 g of citrated blood of 6-day parasitised mice which had been diluted 1:1000 (v/v) with saline to obtain 1.58×10^6 P. berghei I.S.S./ml. The control group (1) were injected with saline, group 2 with ganglioside GM1 P prepared by the method of Example 1 (5 mg/kg s.c. in saline), group 3 with the known anti-protozoal agent pyrimethamine (1 mg/kg s.c. in CMC 0.25% in water, w/v), and group 4 with both GM1 P and pyrimethamine at the doses stated above. The dose volume was 0.25 ml/10 g. The GM1 P was administered 24 hours and 2 hours before infection (Day 0) and the pyrimethamine on days 0,1 and 2.

[2] = system: Candida albicans (strain CN 7996); experiment: In vivo activity against Candida albicans infection in mice; parameters: species or system Swiss male albino mice (Charles River CD1); conditions: cyclophosphamide 50 mg/kg i.v. 96 hours before infection, GM1 P 10 mg/kg s.c. 96 and 24 hours before infection, or both
Method: 53 Swiss male albino mice (Charles River CD1) weighing 23±1 g were randomly divided into […] groups of 10, 14, 14 and 15 animals each (groups 1 to 4 respectively). Group 1 animals were injected with saline as a control group; Group 2 were injected with cyclophosphamide 50 mg/kg (0.2 ml/mouse) intravenously 96 hours before infection; Group 3 with cyclophosphamide 50 mg/kg (0.2 ml/mouse) intravenously 96 hours before infection and with GM1 P 10 mg/kg (0.25 ml/10 g) subcutaneously at 96 and 24 hours before infection; and Group 4 with GM1 P 10 mg/kg (0.25 ml/10 g) subcutaneously 96 and 24 hours before infection. The mice were then injected intravenously with 0.225 ml/mouse of an 18 hour culture of Sabouraud glucose broth containing 1.204×10^7 Candida albicans cells/ml (strain CN 7996).

| Structure (SMILES) | Mortality (%) Day 9 ([1]; Day 9) | Mortality (%) Day 13 ([1]; Day 13) | Number alive at Day 23 ([2]; Day 23) | Mean survival time [2] |
| --- | --- | --- | --- | --- |
| CCc1nc(N)nc(N)c1-c1ccc(Cl)cc1 [pyrimethamine] | 50% | 90% |  |  |
| O=P1(N(CCCl)CCCl)NCCCO1 (stereo not shown) [cyclophosphamide] |  |  | 0 | 1.21 days |
